One series deals with P. aeruginosa. Description: Checkerboard assay of EDTA and antibiotics with and without acidified nitrite background. Type of series: cell-based, Pseudomonas aeruginosa. Here is the method: The antibiotic agents used in these studies included Tobramycin, Azithromycin, Colistin, Ticarcillin, Ciprofloxacin, Sulfametoxazole, Sulfamethazine, Tetracycline, Vancomycin, Imipenem, and Cefepime. […] Aerobic samples are incubated for 24 or 48 hours, and anaerobic samples are incubated for 48 hours.

Another series relates to PA strain PAO1. Description: Optical density growth/viability of PAO1 with A-NO2-, EDTA and/or tobramycin. It counts as cell-based, Pseudomonas aeruginosa. Particulars: for growth of PAO1: 15 mM A-NO2- or 1 mM EDTA and 2 μg/ml TOBI. Here is the method: FIG. 2 represent optical density measurements with control (untreated) bacteria arbitrarily set to 1.0 after 24 and 48 hr of growth at 37° C. in a standard rich medium known Luria broth (LB). Another experiment included the powerful aminoglycoside antibiotic, tobramycin (TOBI), that is commonly used for the treatment of PA CF/COPD lung infections (Moreau-Marquis S, et al. 2009. Am J Respir Cell Mol Biol 41:305-313; Dal Negro R, et al. 2008. Adv Ther 25:1019-1030). Nitrite was used at 25 mM (aerobic) or 15 mM (anaerobic); EDTA, 1.0 mM; TOBI, 2 μg/ml. Anaerobic LB was supplemented with 0.1 M potassium phosphate, pH 6.5 and 100 mM KNO3 as a terminal electron acceptor for anaerobic growth.

A further series has as its system anaerobic FRD1 biofilms. The settings on record: 15 mM NO2-, cited from earlier work.
The conditions of series [1]: cited from earlier work.
The subject of a further series is P. aeruginosa biofilm. The settings on record: acidified nitrite 15, 25, 35 mM and EDTA 1, 5, 10 mM alone, aerobic and anaerobic, 24 hours treatment. Here is the method: In order to determine the efficacy of the combination treatment for biofilm elimination, we employed a Crystal Violet assay. This allows us to determine the total biomass of the biofilm.
Crystal Violet stains biofilm mass which is a quantitative measure of biofilm density/thickness, but not necessarily viability (live/dead) of the biomass.
Cultures are grown for 24 hours aerobically or anaerobically, and then treated for 24 hours before assay.
P. aeruginosa was allowed to adhere to 96 well polystyrene 96 well microplates at incubate at 37° C. under aerobic vs. anaerobic conditions. The biofilms were washed with PBS and stained with 1% crystal violet (CV) for 15 minutes at room temperature. The CV was removed and the stained bacteria washed an additional 3 times prior to solubilization of the CV with 95% ethanol. The absorbance at 590 nm was monitored using a microplate reader.

For series [2], the system named is mucoid FRD1 and non-mucoid FRD1/pmucA. The settings on record: anaerobic 15 mM NO2-, pH 6.5, after 5 days, cited from earlier work.
For the next series, the system named is non-mucoid FRD1/pmucA. The settings on record: cited from earlier work.
The test system of another series is mucoid FRD1. Particulars: cited from earlier work.
The test system of series [3] is non-mucoid strains, PAO1 and FRD1/pmucA. The settings on record: 15 mM A-NO2-, pH 6.5, anaerobic, 4 day incubation; cited from earlier work.
In the next series the test system is mucoid PA CF strain FRD1. The settings on record: 15 mM A-NO2-, pH 6.5, anaerobic; cited from earlier work.
The test system of another series is FRD1/pmucA. Particulars: mucA complemented strain, pH values between 6.0 and 7.5; cited from earlier work.
Another series concerns P. aeruginosa (PAO1). The settings on record: 10 mM EDTA; 30 mM NaNO2; 10 mM EDTA-10 mM NaNO2.
For a further series, the system named is FRD1. Particulars: mucA mutant FRD1; cited from earlier work.
A further series deals with PA. Particulars: EDTA alone; cited from earlier work.

Read-outs that look alike come from different tables or passages of the source.

Experimental for P. aeruginosa (PAO1): BALB/c mice (8 per group) were infected with 1.7×10^6 P. aeruginosa (PAO1) in 1 mg/ml alginate.
The infected mice (n=8) were treated with either (i) 10 mM PBS, pH 6.5, (ii) 10 mM EDTA in PBS, pH 6.5, (iii) 30 mM NaNO2 in PBS, pH 6.5, or (iv) 10 mM EDTA-10 mM NaNO2 in PBS, pH 6.5. Agents were administered as inhaled therapies beginning at 12 hours post-inoculation and continued once daily.

Regarding `NC[C@H]1O[C@H](O[C@H]2[C@H](O)[C@@H](O[C@H]3O[C@H](CO)[C@@H](O)[C@H](N)[C@H]3O)[C@H](N)C[C@@H]2N)[C@H](N)C[C@@H]1O` [TOBI, tobramycin], in the series with P. aeruginosa, the “bactericidal activity of the antibiotic when combined with NaNO2 and EDTA” value is recorded as “synergistically increases the bactericidal activity”. Also, the “growth of PAO1” value in the series on PA strain PAO1 was “initially impaired”. Also, the “killing PA” value in the series with PA strain PAO1 (anaerobic conditions, TOBI 2 μg/ml) is “not effective”.
For acidified nitrite [A-NO2^−], in the series with anaerobic FRD1 biofilms (pH 6.5, 2 days), the “death of biofilm bacteria” value is “nearly complete death of biofilm bacteria”. In the series with anaerobic FRD1 biofilms (pH 7.5, 2 days), the “biofilm structure and cell viability relative to control biofilms” value is “no difference in biofilm structure and cell viability”. The toxicity in humans result in [1] (each agent separately) is recorded as “minimal toxicity”. Also, the “biomass density/thickness of biofilm” value in the series with P. aeruginosa biofilm is “reduction of biomass density/thickness”. Further, the “CFU of mucoid FRD1 in mixed culture” value in series [2] (three bacterial ratios) was < 10^3 CFU/ml. Besides, in [2], the “viability of mucoid FRD1 in mixed culture” value was “lost viability”. The “viability of non-mucoid FRD1/pmucA in mixed culture” value in series [2] is recorded as “maintained viability”. For the same compound, the competitive index in the series with non-mucoid FRD1/pmucA (complemented strain FRD1/pmucA, CD1 mouse airways, 6 days) is listed as roughly 1.0; in the series on mucoid FRD1 (FRD1, 10^6 intratracheally instilled into CD1 mouse airways, 6 days) it was roughly 0.2. The “decrease of bacteria in mouse lungs” value in the series on non-mucoid FRD1/pmucA (pH 6.5 and pH 5.5) is reported as “not”; in the series on mucoid FRD1 (pH 5.5, daily treatment) it was greater than 3 logs; with mucoid FRD1 (pH 6.5, daily treatment) it was greater than 2 logs. Further, the “bacteria in mouse lungs after long-term treatment” value in the series with mucoid FRD1 (15 mM NO2- daily for 16 days) is listed as “no bacteria detected”. Moreover, the “viability of non-mucoid strains” value in series [3] is “remained viable”. In the series on mucoid PA CF strain FRD1, the “rate of killing of mucoid FRD1” value was roughly 90 % per day. In addition, the “killing as a function of pH” value in the series on FRD1/pmucA was “little or no killing”; in the series with FRD1, “more effectively at lower pH”. Also, the “growth of PAO1” value with PA strain PAO1 is “initially impaired”. Also, the “average CFU/lung relative to control (PBS)” value with P. aeruginosa (PAO1) is “reduced”.
As to `CC[C@H]1OC(=O)[C@H](C)[C@@H](O[C@H]2C[C@@](C)(OC)[C@@H](O)[C@H](C)O2)[C@H](C)[C@@H](O[C@@H]2O[C@H](C)C[C@H](N(C)C)[C@H]2O)[C@](C)(O)C[C@@H](C)CN(C)[C@H](C)[C@@H](O)[C@]1(C)O` [Azithromycin], the “bactericidal activity of the antibiotic when combined with NaNO2 and EDTA” value with P. aeruginosa is “synergistically increases the bactericidal activity”. For the same compound, the “result in combination with EDTA/NO2-” value in the series with P. aeruginosa (compared with the other antibiotic agents) is “best results so far in combination”.
For the compound `O=C(O)CN(CCN(CC(=O)O)CC(=O)O)CC(=O)O` [EDTA, ethylene diamine tetraacetic acid, reference compound], the toxicity in humans entry in series [1] (in vivo) is “minimal toxicity”. The “biomass density/thickness of biofilm” value in the series on P. aeruginosa biofilm is reported as “reduction of biomass density/thickness”. In the series on PA, the “clinical course or airway microbial flora” value is recorded as “not modify the clinical course or the airway microbial flora”. Also, the “MICs of EDTA upon addition of acidified nitrite” value in the series with P. aeruginosa (nitrite background 7.5 mM) is “decreased”. Further, the “growth of PAO1” value with PA strain PAO1 was “initially impaired”. In addition, the “average CFU/lung relative to control (PBS)” value in the series on P. aeruginosa (PAO1) was “reduced”.

The values above are taken from patent US9925206B2, “Compositions and methods for treating bacterial infection” (priority 2015, dated 2018).
